Columns and labels:
[1] = target: T1, CB2 (Homo sapiens, UniProt P34972); experiment: cell-based; assay type: cell-based; conditions: for functional behaviour at CB2: cAMP functional assay
[2] = target: T1, CB2; conditions: read-out: Ki CB2; partial agonist on CB2; ref Dhopeshwarkar et al., 2017; cited from earlier work
[3] = target: CB1; conditions: read-out: Ki CB1; antagonist on CB1; ref Dhopeshwarkar et al., 2017; cited from earlier work

T1 sequence (P34972 whole entry): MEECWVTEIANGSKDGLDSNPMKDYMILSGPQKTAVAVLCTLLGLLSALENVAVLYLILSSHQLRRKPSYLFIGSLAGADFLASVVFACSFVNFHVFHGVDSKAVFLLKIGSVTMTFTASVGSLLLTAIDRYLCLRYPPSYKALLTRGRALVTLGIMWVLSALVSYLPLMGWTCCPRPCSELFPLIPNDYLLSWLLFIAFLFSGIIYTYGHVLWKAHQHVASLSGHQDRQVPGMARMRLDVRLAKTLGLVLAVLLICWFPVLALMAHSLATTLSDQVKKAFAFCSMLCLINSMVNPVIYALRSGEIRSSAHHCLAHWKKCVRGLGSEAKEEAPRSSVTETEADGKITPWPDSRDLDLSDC

| Compound | EC50 [1] | functional behaviour at CB2 [1] | Ki [2] | Ki [3] |
| --- | --- | --- | --- | --- |
| CCN(CC)c1ccc(CN(Cc2cc(OC)c(OC)c(OC)c2)S(=O)(=O)c2cccs2)cc1 [XIE57, N-(4-(diethylamino)benzyl)-N-(3,4,5-trimethoxybenzyl)thiophene-2-sulfonamide] | 6.9 ± 2.9 µM | partial agonist |  |  |
| CCN(CC)c1ccc(CN(Cc2cc(OC)c(OC)c(OC)c2)S(=O)(=O)/C=C/c2ccccc2)cc1 [XIE55, (E)-N-(4-(diethylamino)benzyl)-2-phenyl-N-(3,4,5-trimethoxybenzyl)ethene-1-sulfonamide] | 1.5 ± 0.4 µM | inverse agonist |  |  |
| COc1ccc2c(c1)c(CCN1CCOCC1)c(C)n2C(=O)c1cccc(Cl)c1Cl [GW-405,833] |  |  | 0.00392 ± 0.00158 µM | 4.77 ± 1.68 µM |

Source: PMC8247115 (Cell, 2020)
